Results reported in BindingDB's records for doi:10.1021/jm00023a011 (Agricultural University of Athens, 1995).

The molecules below were run against T1, Phospholipase A1 member A (Rattus norvegicus, UniProt P97535) (assay: IC50 was measured as concentration causing 50% inhibition of lysosomal phospholipase A1 activity.).
T1 sequence (P97535 whole entry): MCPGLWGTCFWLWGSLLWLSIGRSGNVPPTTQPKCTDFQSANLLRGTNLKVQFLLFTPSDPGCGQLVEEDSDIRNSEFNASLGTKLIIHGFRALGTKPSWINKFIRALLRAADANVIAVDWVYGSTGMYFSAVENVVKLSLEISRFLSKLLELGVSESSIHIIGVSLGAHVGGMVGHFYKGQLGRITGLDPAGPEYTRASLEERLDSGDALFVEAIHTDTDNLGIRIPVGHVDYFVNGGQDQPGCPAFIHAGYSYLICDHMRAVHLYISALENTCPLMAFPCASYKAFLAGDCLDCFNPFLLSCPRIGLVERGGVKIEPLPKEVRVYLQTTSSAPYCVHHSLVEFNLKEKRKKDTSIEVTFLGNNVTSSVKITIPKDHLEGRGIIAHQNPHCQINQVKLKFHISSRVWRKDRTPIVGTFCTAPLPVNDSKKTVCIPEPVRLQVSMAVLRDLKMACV

Row | SMILES | IC50
1 | CCNC1CC(N)C(OC2OC(CNC(=O)C(C)N)=CCC2N)C(O)C1OC1OCC(C)(O)C(NC)C1O (centres undefined) | 91.4 µM
2 | CC(N)C(=O)NCC1OC(OC2C(N)CC(N)C(OC3OC(CO)C(O)C(N)C3O)C2O)C(O)C(O)C1O (centres undefined) | 75.5 µM
3 | NC[C@H]1O[C@H](O[C@H]2[C@H](O)[C@@H](O[C@H]3O[C@H](CO)[C@@H](O)[C@H](N)[C@H]3O)[C@H](N)C[C@@H]2N)[C@H](O)[C@@H](O)[C@@H]1O [CHEBI:17630] | 80.4 µM
4 | CN[C@@H]1[C@@H](O)[C@@H](O[C@@H]2[C@@H](O)[C@H](O[C@H]3O[C@H]([C@@H](C)NC)CC[C@H]3N)[C@@H](N)C[C@H]2N)OC[C@]1(C)O [GENTAMICIN] | 94.2 µM
5 | CCN[C@@H]1C[C@H](N)[C@@H](O[C@H]2OC(CN)=CC[C@H]2N)[C@H](O)[C@H]1O[C@H]1OC[C@](C)(O)[C@H](NC)[C@H]1O [Netilmicin] | 115 µM

The molecules below were run against T1, Phospholipase A1 member A (assay: IC50 was measured as concentration causing 50% inhibition of lysosomal phospholipase A1 activity).

Row | SMILES | IC50
6 | CCNC1CC(N)C(OC2OC(CNC(=O)C(N)CC(=O)O)=CCC2N)C(O)C1OC1OCC(C)(O)C(NC)C1O (centres undefined) | 132 µM
7 | CCN[C@@H]1C[C@H](N)[C@@H](O[C@H]2OC(CNC(=O)[C@H](C)NC(=O)[C@H](C)N)=CC[C@H]2N)[C@@H](O)[C@H]1O[C@H]1OC[C@](C)(O)[C@H](NC)[C@@H]1O | 101 µM
8 | C[C@H](N)C(=O)N[C@@H](C)C(=O)NC[C@H]1O[C@H](O[C@H]2[C@@H](O)[C@@H](O[C@H]3O[C@@H](CO)[C@@H](O)[C@H](N)[C@@H]3O)[C@H](N)C[C@@H]2N)[C@H](O)[C@H](O)[C@@H]1O | 49.4 µM
9 | CCNC1CC(N)C(OC2OC(CNC(=O)CN)=CCC2N)C(O)C1OC1OCC(C)(O)C(NC)C1O (centres undefined) | 118 µM
